Patent US12624018B1, “Inhibitors of RIPK2 and medical uses thereof” (Odyssey Therapeutics, Inc., priority 2022, dated 2026)

What follows are molecules tested against T1, RIPK2 enzyme (Homo sapiens, UniProt O43353) (assay: RIPK2 inhibition (ADP-Glo Kinase Assay)). Conditions: RIPK2 5 nM, ATP 150 μM, MBP substrate, read-out: RIPK2 IC50.
T1 construct: purchased Carna 09-128
Type: biochemical
Outline: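 Swine MBP substrate; compound and 5 nM RIPK2 first mixed for 30 min at room temperature; buffer pH 7.5 HEPES 50 mM with 10 mM MgCl2, 2 mM DTT, 1 mM EGTA, Brij-35, BSA.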

T1 sequence (O43353 1-299 limits assumed): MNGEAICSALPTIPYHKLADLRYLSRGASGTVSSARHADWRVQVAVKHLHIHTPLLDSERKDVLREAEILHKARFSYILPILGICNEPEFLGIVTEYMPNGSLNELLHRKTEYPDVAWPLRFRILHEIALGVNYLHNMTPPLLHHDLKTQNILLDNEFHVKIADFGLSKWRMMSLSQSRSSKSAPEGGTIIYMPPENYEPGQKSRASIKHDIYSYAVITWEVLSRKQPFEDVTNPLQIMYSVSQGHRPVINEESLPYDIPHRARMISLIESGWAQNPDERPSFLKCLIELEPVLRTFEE

Row | IC50 [nM] | Compound
1 | < 2.5 | CC(C)(C)n1cc(NC(=O)Cc2ccc(Oc3ccnc4ccc(OC5CCNCC5)cc34)c(F)c2F)cn1 [Compound 165, N-(1-(tert-butyl)-1H-pyrazol-4-yl)-2-(2,3-difluoro-4-((6-(piperidin-4-yloxy)quinolin-4-yl)oxy)phenyl) acetamide]
2 | < 2.5 | CN1CCC(Oc2ccc3nccc(Oc4ccc(CC(=O)Nc5cnn(C(C)(C)C)c5)c(F)c4F)c3c2)CC1 [Compound 166, N-(1-(tert-butyl)-1H-pyrazol-4-yl)-2-(2,3-difluoro-4-((6-((1-methyl-piperidin-4-yl)oxy)quinolin-4-yl)oxy)phenyl) acetamide]
3 | < 2.5 | CC(C)(C)n1cc(NC(=O)Cc2ccc(Oc3ccnc4ccc(S(C)(=O)=O)cc34)c(F)c2F)cn1 [Compound 167, N-(1-(tert-butyl)-1H-pyrazol-4-yl)-2-(2,3-difluoro-4-((6-(methylsulfonyl)quinolin-4-yl)oxy)phenyl)acetamide]
4 | < 2.5 | CCS(=O)(=O)c1ccc2nccc(Oc3ccc(CC(=O)Nc4cnn(C(C)(C)C)c4)c(F)c3F)c2c1 [Compound 168, N-(1-(tert-butyl)-1H-pyrazol-4-yl)-2-(4-((6-(ethylsulfonyl)quinolin-4-yl)oxy)-2,3-difluorophenyl)acetamide]
5 | < 2.5 | CC(C)(C)n1cc(NC(=O)Cc2ccc(Oc3ncnc4ccc(OC5CCNCC5)cc34)c(F)c2F)cn1 [Compound 169, N-(1-(tert-butyl)-1H-pyrazol-4-yl)-2-(2,3-difluoro-4-((6-(piperidin-4-yloxy)quinazolin-4-yl)oxy)phenyl) acetamide]
6 | < 2.5 | CN1CCC(Oc2ccc3ncnc(Oc4ccc(CC(=O)Nc5cnn(C(C)(C)C)c5)c(F)c4F)c3c2)CC1 [Compound 170, N-(1-(tert-butyl)-1H-pyrazol-4-yl)-2-(2,3-difluoro-4-((6-((1-methyl-piperidin-4-yl)oxy)quinazolin-4-yl)oxy)phenyl) acetamide]
7 | < 2.5 | CC(C)(C)n1cc(NC(=O)Cc2ccc(Oc3ccnc4ccc(OC5CCNCC5)cc34)c(Cl)c2)cn1 [Compound 171, N-(1-(tert-butyl)-1H-pyrazol-4-yl)-2-(3-chloro-4-((6-(piperidin-4-yloxy)quinolin-4-yl)oxy)phenyl) acetamide]
8 | < 2.5 | CN1CCC(Oc2ccc3nccc(Oc4ccc(CC(=O)Nc5cnn(C(C)(C)C)c5)cc4Cl)c3c2)CC1 [Compound 172, N-(1-(tert-butyl)-1H-pyrazol-4-yl)-2-(3-chloro-4-((6-((1-methyl-piperidin-4-yl)oxy)quinolin-4-yl)oxy)phenyl) acetamide]
9 | < 2.5 | CCS(=O)(=O)c1ccc2nccc(Oc3ccc(CC(=O)Nc4cnn(C(C)(C)C)c4)c(F)c3C)c2c1 [Compound 173, N-(1-(tert-butyl)-1H-pyrazol-4-yl)-2-(4-((6-(ethylsulfonyl)quinolin-4-yl)oxy)-2-fluoro-3-methylphenyl)acetamide]
10 | < 2.5 | Cc1c(Oc2ccnc3ccc(S(C)(=O)=O)cc23)ccc(CC(=O)Nc2cc(C(C)(C)C)n[nH]2)c1F [Compound 175, N-(5-(tert-butyl)-1H-pyrazol-3-yl)-2-(2-fluoro-3-methyl-4-((6-(methylsulfonyl)quinolin-4-yl)oxy)phenyl)acetamide]
11 | 4 | Cc1cc(CC(=O)Nc2cnn(C(C)(C)C)c2)ccc1Oc1ncnc2ccc(OC3CCN(CCO)CC3)cc12 [Compound 176]
12 | < 2.5 | COCCN1CCC(Oc2ccc3ncnc(Oc4ccc(CC(=O)Nc5cnn(C(C)(C)C)c5)cc4C)c3c2)CC1 [Compound 177, N-(1-(tert-butyl)-1H-pyrazol-4-yl)-2-(4-((6-((1-(2-methoxyethyl)piperidin-4-yl)oxy)quinazolin-4-yl)oxy)-3-methylphenyl) acetamide]
13 | 5 | Cc1cc(CC(=O)Nc2cnn(C(C)(C)C)c2)ccc1Oc1ncnc2ccc(OC3CCN(CC(F)F)CC3)cc12 [Compound 178, N-(1-(tert-butyl)-1H-pyrazol-4-yl)-2-(4-((6-((1-(2,2-difluoroethyl)piperidin-4-yl)oxy)quinazolin-4-yl)oxy)-3-methylphenyl) acetamide]
14 | < 2.5 | CCP(=O)(CC)c1ccc2nccc(Oc3ccc(CC(=O)Nc4cnn(C(C)(C)C)c4)cc3C)c2c1 [Compound 180, N-(1-(tert-butyl)-1H-pyrazol-4-yl)-2-(4-((6-(diethylphosphoryl)quinolin-4-yl)oxy)-3-methylphenyl) acetamide]
15 | < 2.5 | Cc1cc(CC(=O)Nc2cnn(C(C)(C)C)c2)ccc1Oc1ccnc2ccc(P3(=O)CCCC3)cc12 [Compound 181, N-(1-(tert-butyl)-1H-pyrazol-4-yl)-2-(3-methyl-4-((6-(1-oxidophospholan-1-yl)quinolin-4-yl)oxy)phenyl) acetamide]
16 | < 2.5 | Cc1cc(CC(=O)Nc2noc(C(C)(C)C)n2)ccc1Oc1ncnc2ccc(OC3CCNCC3)cc12 [Compound 183, N-(5-(tert-butyl)-1,2,4-oxadiazol-3-yl)-2-(3-methyl-4-((6-(piperidin-4-yloxy)quinazolin-4-yl)oxy)phenyl) acetamide]

Row | IC50 [nM] | Compound
17 | 3 | Cc1cc(CC(=O)Nc2noc(C(C)(C)C)n2)ccc1Oc1ncnc2ccc(OC3CCN(C)CC3)cc12 [Compound 184, N-(5-(tert-butyl)-1,2,4-oxadiazol-3-yl)-2-(3-methyl-4-((6-((1-methylpiperidin-4-yl)oxy)quinazolin-4-yl)oxy)phenyl) acetamide]
18 | < 2.5 | Cc1c(Oc2ncnc3ccc(OC4CCN(C)CC4)cc23)ccc(CC(=O)Nc2cc(C(C)(C)C)n[nH]2)c1F [Compound 186, N-(5-(tert-butyl)-1H-pyrazol-3-yl)-2-(2-fluoro-3-methyl-4-((6-((1-methyl-piperidin-4-yl)oxy)quinazolin-4-yl)oxy)phenyl) acetamide]
19 | < 2.5 | Cc1cc(CC(=O)Nc2cnn(C(C)(C)C)c2)ccc1Oc1ccnc2ccc(OC[C@@H]3CCNC3)cc12 [Compound 192, (R)-N-(1-(tert-butyl)-1H-pyrazol-4-yl)-2-(3-methyl-4-((6-(pyrrolidin-3-ylmethoxy)quinolin-4-yl)oxy)phenyl) acetamide]
20 | < 2.5 | Cc1cc(CC(=O)Nc2cnn(C(C)(C)C)c2)ccc1Oc1ccnc2ccc(OC[C@H]3CCNC3)cc12 [Compound 193, (S)-N-(1-(tert-butyl)-1H-pyrazol-4-yl)-2-(3-methyl-4-((6-(pyrrolidin-3-ylmethoxy)quinolin-4-yl)oxy)phenyl) acetamide]
21 | < 2.5 | Cc1cc(CC(=O)Nc2cnn(C(C)(C)C)c2)ccc1Oc1ccnc2ccc(OC[C@@H]3CCCNC3)cc12 [Compound 194, (R)-N-(1-(tert-butyl)-1H-pyrazol-4-yl)-2-(3-methyl-4-((6-(piperidin-3-ylmethoxy)quinolin-4-yl)oxy)phenyl) acetamide]
22 | < 2.5 | Cc1cc(CC(=O)Nc2cnn(C(C)(C)C)c2)ccc1Oc1ccnc2ccc(OC[C@H]3CCCNC3)cc12 [Compound 195, (S)-N-(1-(tert-butyl)-1H-pyrazol-4-yl)-2-(3-methyl-4-((6-(piperidin-3-ylmethoxy)quinolin-4-yl)oxy)phenyl) acetamide]
23 | < 2.5 | [2H]C([2H])([2H])S(=O)(=O)c1ccc2nccc(Oc3ccc(CC(=O)Nc4cnn(C(C)(C)C)c4)cc3C)c2c1 [Compound 198, N-(1-(tert-butyl)-1H-pyrazol-4-yl)-2-(3-methyl-4-((6-((methyl-d3)sulfonyl)quinolin-4-yl)oxy)phenyl)acetamide]
24 | < 2.5 | Cc1cc(CC(=O)Nc2cnn(C(C)(C)C)c2)ccc1Oc1ccnc2ccc(S(=O)(=O)CCO)cc12 [Compound 203, N-(1-(tert-butyl)-1H-pyrazol-4-yl)-2-(4-((6-((2-hydroxyethyl)sulfonyl)quinolin-4-yl)oxy)-3-methylphenyl)acetamide]
25 | < 2.5 | COCCS(=O)(=O)c1ccc2nccc(Oc3ccc(CC(=O)Nc4cnn(C(C)(C)C)c4)cc3C)c2c1 [Compound 204, N-(1-(tert-butyl)-1H-pyrazol-4-yl)-2-(4-((6-((2-methoxyethyl)sulfonyl)quinolin-4-yl)oxy)-3-methylphenyl)acetamide]
26 | < 2.5 | Cc1cc(CC(=O)Nc2cnn(C(C)(C)C)c2)ccc1Oc1ccnc2ccc(S(=O)(=O)CC3CC3)cc12 [Compound 205, N-(1-(tert-butyl)-1H-pyrazol-4-yl)-2-(4-((6-((cyclopropylmethyl)sulfonyl)quinolin-4-yl)oxy)-3-methylphenyl)acetamide]
27 | < 2.5 | Cc1cc(CC(=O)Nc2cnn(C(C)(C)C)c2)ccc1Oc1ccnc2ccc(S(=O)(=O)C(C)C)cc12 [Compound 206, N-(1-(tert-butyl)-1H-pyrazol-4-yl)-2-(4-((6-(isopropylsulfonyl)quinolin-4-yl)oxy)-3-methylphenyl)acetamide]
28 | < 2.5 | Cc1cc(CC(=O)Nc2cnn(C(C)(C)C)c2)ccc1Oc1ccnc2ccc(C(=O)N3CCNCC3)cc12 [Compound 207, N-(1-(tert-butyl)-1H-pyrazol-4-yl)-2-(3-methyl-4-((6-(piperazine-1-carbonyl)quinolin-4-yl)oxy)phenyl) acetamide]
29 | < 2.5 | Cc1cc(CC(=O)Nc2cnn(C(C)(C)C)c2)ccc1Oc1ccnc2ccc(C(=O)N3CC(F)C3)cc12 [Compound 208, N-(1-(tert-butyl)-1H-pyrazol-4-yl)-2-(4-((6-(3-fluoro-azetidine-1-carbonyl)quinolin-4-yl)oxy)-3-methyl-phenyl) acetamide]
30 | < 2.5 | Cc1cc(CC(=O)Nc2cnn(C(C)(C)C)c2)ccc1Oc1ccnc2ccc(C(=O)N3CC(C#N)C3)cc12 [Compound 209, N-(1-(tert-butyl)-1H-pyrazol-4-yl)-2-(4-((6-(3-cyano-azetidine-1-carbonyl)quinolin-4-yl)oxy)-3-methyl-phenyl) acetamide]
31 | < 2.5 | Cc1cc(CC(=O)Nc2cnn(C(C)(C)C)c2)ccc1Oc1ccnc2ccc(C(=O)N3CCCC3)cc12 [Compound 210, N-(1-(tert-butyl)-1H-pyrazol-4-yl)-2-(3-methyl-4-((6-(pyrrolidine-1-carbonyl)quinolin-4-yl)oxy)phenyl) acetamide]
